# In patent publication US12539311B2, “Short-acting heparin-based anticoagulant compounds and methods” (The University of North Carolina at Chapel Hill, priority 2017, dated 2026):
# Like-named read-outs stand apart in the source and are kept apart here.
# How the values were obtained:
# [1] = target: T1, antithrombin (AT) (Homo sapiens, UniProt P01008); experiment: AT-binding affinity analysis using isothermal titration calorimetry (ITC)
# [2] = system: FXa; experiment: Determination of anti-FXa effect in vivo; parameters: species or system Lewis rats; conditions: rat, intravenous; for persistence of anti-FXa effect in vivo: blood drawn 0.5-8 hours
# Protocol: (§1) All studies were performed under an Institutional Animal Care and Use Committee (IACUC)-approved protocol at the University of North Carolina, following Public Health Service guidelines for laboratory animal care and use. Sixteen 400-g Lewis rats were equally divided into four groups. […] Blood was then drawn at specified time points (0.5, 1, 2, 4, 8 hours) after the compounds had been administered, with one sample taken just before administration. 0.8 mL of blood was drawn from the contralateral femoral/saphenous vein into 150 mM citrate at 0.5, 1, 2, 4 and 8 hours following injection of the compounds, with one sample drawn immediately prior to injection. The samples were centrifuged to obtain approximately 400 μL of plasma. The blood samples were subjected to FXa activity analysis. Saline was given periodically subcutaneously to maintain fluid volume.
# [3] = Clearance of oligosaccharides from the drug-treated animals (plasma concentration against time); type: in vivo, Lewis rats
# Protocol: as §1
# Using a calibration curve generated for each compound, the concentration of compound in the reaction mixture was read off for each corresponding FXa activity percentage. The average plasma concentration and standard deviation between the 4 rats in each group were calculated for each time point; these values were used to plot a graph of plasma concentration against time.
# [4] = target: T2, platelet factor 4 (Homo sapiens, UniProt P02776); experiment: Risk of heparin-induced thrombocytopenia (HIT) / binding to platelet factor 4; conditions: expected from size (smaller than 12-mers do not bind platelet factor 4)
# T2 sequence (P02776 32-101): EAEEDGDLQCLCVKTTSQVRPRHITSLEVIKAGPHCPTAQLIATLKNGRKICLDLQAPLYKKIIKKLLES
# [5] = target: T1, antithrombin (AT); conditions: affinity coelectrophoresis, reported in a previous publication; read-out: Binding affinity (Kd) to AT; cited from earlier work
# [6] = target: T1, antithrombin (AT); conditions: reported in a previous publication, method not given, cited from earlier work
# T1 sequence (P01008 33-464): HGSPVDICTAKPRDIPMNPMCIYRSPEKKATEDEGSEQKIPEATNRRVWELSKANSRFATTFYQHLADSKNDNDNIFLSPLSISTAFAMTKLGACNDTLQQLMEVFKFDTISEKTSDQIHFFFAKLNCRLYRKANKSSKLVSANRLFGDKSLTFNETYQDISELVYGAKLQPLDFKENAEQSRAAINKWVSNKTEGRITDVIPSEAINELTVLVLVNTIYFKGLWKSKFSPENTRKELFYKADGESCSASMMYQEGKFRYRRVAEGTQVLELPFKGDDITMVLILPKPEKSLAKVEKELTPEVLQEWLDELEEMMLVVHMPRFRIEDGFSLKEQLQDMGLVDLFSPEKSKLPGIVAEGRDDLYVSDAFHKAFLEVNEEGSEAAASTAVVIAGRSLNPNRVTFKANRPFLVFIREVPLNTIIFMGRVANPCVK
smiles,measurement,setting,value
O=C(O)C1OC(OC2C(CO)OC(OC3C(C(=O)O)OC(OC4C(CO)OC(OC5C(C(=O)O)OC(OC6C(CO)OC(OC7C(C(=O)O)OC(Oc8ccc([N+](=O)[O-])cc8)C(O)C7O)C(NS(=O)(=O)O)C6O)C(OS(=O)(=O)O)C5O)C(NS(=O)(=O)O)C4OS(=O)(=O)O)C(OS(=O)(=O)O)C3O)C(NS(=O)(=O)O)C2O)C(O)C(O)C1OC1OC(CO)C(O)C(O)C1NS(=O)(=O)O (centres unmarked) [Comp 4],Binding affinity (Kd) to AT,[1]; ITC,No binding^c
O=C(O)C1OC(OC2C(COS(=O)(=O)O)OC(OC3C(C(=O)O)OC(OC4C(COS(=O)(=O)O)OC(OC5C(C(=O)O)OC(OC6C(COS(=O)(=O)O)OC(OC7C(C(=O)O)OC(Oc8ccc([N+](=O)[O-])cc8)C(O)C7O)C(NS(=O)(=O)O)C6O)C(OS(=O)(=O)O)C5O)C(NS(=O)(=O)O)C4OS(=O)(=O)O)C(OS(=O)(=O)O)C3O)C(NS(=O)(=O)O)C2O)C(O)C(O)C1OC1OC(COS(=O)(=O)O)C(O)C(O)C1NS(=O)(=O)O (centres unmarked) [Comp 5],Kd,[1]; ITC,5.1 ± 1.4 nM
same,binding to AT (in words),[1]; listed as Compound 5,binds to AT
same,binding to AT (in words),[1]; listed as compound 5,binds to AT tightly
same,persistence of anti-FXa effect in vivo,[2],diminished after 4 hours
same,anti-FXa potency in vivo,[2]; within 30 min after administration,comparable anti-FXa potency to that of fondaparinux and compound 11
same,clearance rate faster than that of fondaparinux,[3]; in a rat or mouse model,at least 50%
same,clearance in vivo (in words),"[3]; rat, compared with fondaparinux and compound 11",cleared faster from the animal in the first 2 hours
same,risk of HIT,[4],very low risk of HIT
"O=C(O)C1OC(OC2C(COS(=O)(=O)O)OC(OC3C(C(=O)O)OC(OC4C(COS(=O)(=O)O)OC(OC5C(C(=O)O)OC(Oc6ccc([N+](=O)[O-])cc6)C(O)C5O)C(NS(=O)(=O)O)C4OS(=O)(=O)O)C(OS(=O)(=O)O)C3O)C(NS(=O)(=O)O)C2O)C(O)C(O)C1OC1OC(COS(=O)(=O)O)C(O)C(O)C1NS(=O)(=O)O (centres unmarked) [Comp 2, GlcNS6S-GlcA-GlcNS6S-IdoA2S-GlcNS3S6S-GlcA-pNP]",Binding affinity (Kd) to AT,[1]; ITC,No binding
"CC(=O)NC1C(OC2C(C(=O)O)OC(OC3C(COS(=O)(=O)O)OC(OC4C(C(=O)O)OC(OC5C(COS(=O)(=O)O)OC(OC6C(C(=O)O)OC(OC7C(COS(=O)(=O)O)OC(OC8C(C(=O)O)OC(Oc9ccc([N+](=O)[O-])cc9)C(O)C8O)C(NS(=O)(=O)O)C7O)C(OS(=O)(=O)O)C6O)C(NS(=O)(=O)O)C5O)C(OS(=O)(=O)O)C4O)C(NS(=O)(=O)O)C3OS(=O)(=O)O)C(O)C2O)OC(COS(=O)(=O)O)C(O)C1O (centres unmarked) [Comp 11, reference compound]",persistence of anti-FXa effect in vivo,[2],persisted after 8 hours
same,Kd,[5],8 ± 3 nM
"O=C(O)C1OC(OC2C(COS(=O)(=O)O)OC(OC3C(C(=O)O)OC(OC4C(COS(=O)(=O)O)OC(OC5C(C(=O)O)OC(Oc6ccc([N+](=O)[O-])cc6)C(O)C5O)C(NS(=O)(=O)O)C4O)C(OS(=O)(=O)O)C3O)C(NS(=O)(=O)O)C2OS(=O)(=O)O)C(O)C(O)C1OC1OC(COS(=O)(=O)O)C(O)C(O)C1NS(=O)(=O)O (centres unmarked) [GlcA2S-containing 6-mer, GlcNS6S-GlcA-GlcNS3S6S-GlcA2S-GlcNS6S-GlcA-pNP]",Binding affinity (Kd) to AT,[6],No binding^d
O=C(O)C1OC(OC2C(COS(=O)(=O)O)OC(OC3C(C(=O)O)OC(OC4C(COS(=O)(=O)O)OC(OC5C(C(=O)O)OC(Oc6ccc([N+](=O)[O-])cc6)C(O)C5O)C(NS(=O)(=O)O)C4O)C(O)C3O)C(NS(=O)(=O)O)C2OS(=O)(=O)O)C(O)C(O)C1OC1OC(COS(=O)(=O)O)C(O)C(O)C1NS(=O)(=O)O (centres unmarked) [IdoA-containing 6-mer],Kd,[6]; read-out: Binding affinity (Kd) to AT,32.6 ± 5.3 nM
